In patent publication US12195490B2, “STRAD-binding agents and uses thereof” (The Regents of the University of California, priority 2020, dated 2025):
Counter-ions that a name gives are not always drawn.

System: ACHN cell line
Experiment: drug screen of the SelleckChem kinase inhibitor library with and without 5 uM SU-329, Cell-Titer Glo after 5 days
Type: cell-based
Conditions: kinase inhibitor at 200 nM with and without 5 uM SU329; ACHN cell line; 5 days; Cell-Titer Glo

**Q.** CCN1CCN(Cc2ccc(C(=O)Nc3ccc(C)c(Oc4ccc5c(c4)CC(=O)N5)c3)cc2C(F)(F)F)CC1 [DDR1-IN-1] was tested. Which log2fc did it give?
**A.** −0.4228

**Q.** How did the log2fc turn out when NC(=O)c1ncn([C@@H]2O[C@H](CO)[C@@H](O)[C@H]2O)c1N [AICAR (Acadesine)] was run?
**A.** 0.7164

**Q.** With COc1c(C)c(C(=O)c2ccc(N)c(C(=O)[O-])c2)n2ccccc12.[Na+] [SSR128129E] as the compound, how does the log2fc read?
**A.** 0.3473

**Q.** For FC(F)(F)c1ccc(/C=C/c2nc(COc3ccc(CCCCn4ccnn4)cc3)co2)cc1 [Mubritinib (TAK 165)], which log2fc is on record?
**A.** 0.225

**Q.** How did the log2fc turn out when Cc1[nH]c(/C=C2\C(=O)Nc3ccc(S(=O)(=O)Cc4c(Cl)cccc4Cl)cc32)c(C)c1C(=O)N1CCC[C@@H]1CN1CCCC1 [PHA-665752] was run?
**A.** 0.1781

**Q.** For CNC(=O)Nc1ccc(-c2nc(N3CC4CCC(C3)O4)c3cnn(C4CCC5(CC4)OCCO5)c3n2)cc1 [WYE-125132 (WYE-132)], which log2fc is on record?
**A.** 0.04946

**Q.** With Cc1cc(Nc2nc(N[C@@H](C)c3ccc(F)cc3)c(C#N)cc2F)n[nH]1 [AZ 960] as the compound, how does the log2fc read?
**A.** 0.979

**Q.** For CNC(=O)c1c(F)cccc1Nc1nc(Nc2cc3c(cc2OC)CCN3C(=O)CN(C)C)nc2[nH]ccc12 [GSK1838705A], which log2fc is on record?
**A.** −0.03081

**Q.** With COc1cccc2cc(-c3nc([C@H]4CC[C@H](C(=O)O)CC4)n4ncnc(N)c34)[nH]c12 [OSI-027] as the compound, how does the log2fc read?
**A.** −1.494

**Q.** Which log2fc does the source give for O=C(NCc1cccc(O)c1)Nc1nc(-c2ccncc2)cs1 [RKI-1447] here?
**A.** −0.8453

**Q.** Which log2fc does the source give for C=CC(=O)Nc1cccc(Oc2nc(Nc3ccc(N4CCN(C)CC4)cc3OC)ncc2Cl)c1 [WZ4003] here?
**A.** −0.1405

**Q.** For Oc1cccc(-c2nc(N3CCOCC3)c3oc4ncccc4c3n2)c1 [PI-103], which log2fc is on record?
**A.** −1.021

**Q.** How did the log2fc turn out when N#Cc1c(O)c2c(-c3ccc(-c4ccccc4O)cc3)csc2[nH]c1=O [A-769662] was run?
**A.** 0.1798

**Q.** Which log2fc does the source give for N[C@@H]1CCCN(c2c(/C=C3\SC(=O)NC3=O)cccc2-c2ccccc2)C1 [AZD1208] here?
**A.** −0.4967

**Q.** c1cncc(CN2CCC(n3ncc4c(N5CCOCC5)nc(-c5ccc6[nH]ccc6c5)nc43)CC2)c1 [WAY-600] was tested. Which log2fc did it give?
**A.** −1.322

**Q.** How did the log2fc turn out when COc1cccc(-c2cc(=O)c3ccccc3o2)c1N [PD98059, reference compound] was run?
**A.** 0.3369

**Q.** Which log2fc does the source give for COc1cc(N2CCC(N(C)C)CC2)ccc1Nc1ncc(Cl)c(Nc2ccccc2P(C)(C)=O)n1 [ALK-IN-1] here?
**A.** −0.4692

**Q.** For O=C1NCCc2[nH]c(-c3ccncc3)cc21 [PHA-767491], which log2fc is on record?
**A.** −0.9629

**Q.** For Cc1c(CN2CCN(C(=O)[C@H](C)O)CC2)sc2c(N3CCOCC3)nc(-c3cnc(N)nc3)nc12 [Apitolisib (GDC-0980, RG7422)], which log2fc is on record?
**A.** −0.658

**Q.** How did the log2fc turn out when CCOc1cc(C(=O)N2CCC(N3CCN(C)CC3)CC2)ccc1Nc1ncc2c(n1)N(C1CCCC1)c1ccccc1C(=O)N2C [ERK5-IN-1] was run?
**A.** 0.1031

**Q.** Which log2fc does the source give for CCCCCCCCCCCCc1ccc(S(=O)(=O)Nc2nncs2)cc1 [PHT-427] here?
**A.** −0.02861

**Q.** For Cc1ccc(NC(=O)c2ccc(CN3CCN(C)CC3)cc2)cc1Nc1nccc(-c2cccnc2)n1 [Imatinib Mesylate (STI571), imatinib, reference compound], which log2fc is on record?
**A.** 0.1536

**Q.** Cc1ccccc1-n1c(Cn2ncc3c(N)ncnc32)nc2cccc(C)c2c1=O [PIK-293] was tested. Which log2fc did it give?
**A.** 0.1249

**Q.** Which log2fc does the source give for C[C@@H](Oc1cc(-c2cnn(C3CCNCC3)c2)cnc1N)c1c(Cl)ccc(F)c1Cl [Crizotinib (PF-02341066)] here?
**A.** 0.196

**Q.** Which log2fc does the source give for CC(C)(C)c1nc(-c2cccc(NS(=O)(=O)c3c(F)cccc3F)c2F)c(-c2ccnc(N)n2)s1 [Dabrafenib (GSK2118436), dabrafenib, reference compound] here?
**A.** −0.314

**Q.** For NC(=O)c1cccc(-c2cc(Nc3ccc(OC(F)(F)F)cc3)ncn2)c1 [GNF-2], which log2fc is on record?
**A.** 0.1337

**Q.** With Cc1ccc(Nc2nccc(N(C)c3ccc4c(C)n(C)nc4c3)n2)cc1S(N)(=O)=O [Pazopanib] as the compound, how does the log2fc read?
**A.** −0.1316

**Q.** For C=CC(=O)Nc1cccc(Nc2nc(Nc3ccc(OCCOC)cc3)ncc2F)c1 [CC-292 (AVL-292)], which log2fc is on record?
**A.** −0.2142

**Q.** How did the log2fc turn out when CC[C@H](CO)Nc1nc(NCc2ccccc2)c2ncn(C(C)C)c2n1 [Roscovitine (Seliciclib, CYC202)] was run?
**A.** 0.5993

**Q.** With CN1CCN(c2nc(C3=C(c4c[nH]c5ccccc45)C(=O)NC3=O)c3ccccc3n2)CC1 [Sotrastaurin] as the compound, how does the log2fc read?
**A.** 0.054

**Q.** How did the log2fc turn out when CC[C@@H]1C(=O)N(C)c2cnc(Nc3ccc(C(=O)NC4CCN(C)CC4)cc3OC)nc2N1C1CCCC1 [BI 2536] was run?
**A.** 1.415

**Q.** For O=C(Nc1cc(C(F)(F)F)cc(C(F)(F)F)c1)c1cc(Cl)ccc1O [IMD 0354], which log2fc is on record?
**A.** 0.2086

**Q.** How did the log2fc turn out when Nc1ncnc2c1c(-c1cnc3[nH]ccc3c1)nn2C1CCCC1 [PP121] was run?
**A.** −0.5206

**Q.** With CN1CCN(C2CCN(C(=O)Nc3cc(Oc4ccc(NC(=O)C5(C(=O)Nc6ccc(F)cc6)CC5)c(F)c4)ccn3)CC2)CC1 [Golvatinib (E7050)] as the compound, how does the log2fc read?
**A.** −0.1341

**Q.** For NCC(=O)Nc1ccc(-n2nc(C(F)(F)F)cc2-c2ccc3c(ccc4ccccc43)c2)cc1 [OSU-03012 (AR-12)], which log2fc is on record?
**A.** 0.7911

**Q.** CS(=O)(=O)c1cccc(CNc2nc(Nc3ccc4c(c3)CCC(=O)N4)ncc2C(F)(F)F)c1 [PF-573228] was tested. Which log2fc did it give?
**A.** 0.4325

**Q.** CCCS(=O)(=O)Nc1ccc(F)c(C(=O)c2c[nH]c3ncc(Cl)cc23)c1F [PLX-4720] was tested. Which log2fc did it give?
**A.** −0.05066

**Q.** How did the log2fc turn out when Cn1cnc(N)c2ncnc1-2 [3-Methyladenine (3-MA)] was run?
**A.** 0.3232

**Q.** Which log2fc does the source give for COc1cc2ncnc(Oc3ccc(CC(=O)Nc4cnn(C(C)C)c4)cc3)c2cc1OC [AZD2932] here?
**A.** 0.4428

**Q.** For CCc1cncnc1N1CCN(Cc2nc3ccc(C(F)(F)F)cc3[nH]2)CC1 [PF-4708671], which log2fc is on record?
**A.** 0.5187

**Q.** How did the log2fc turn out when COc1ccc2c(c1)c(C1=C(c3c[nH]c4ccccc34)C(=O)NC1=O)cn2CCCN(C)C [Go 6983] was run?
**A.** 0.08992

**Q.** O=C1NC(=O)/C(=C/c2ccc(-c3ccc(F)cc3O)o2)S1 [AS-252424] was tested. Which log2fc did it give?
**A.** −0.1563

**Q.** For Cc1cc(CS(=O)(=O)c2ccccc2)cc(OCc2ccc(CN3CCC[C@@H]3CO)cc2)c1 [PF-543], which log2fc is on record?
**A.** 0.8598

**Q.** With CC(C)(C)c1cc(C=C(C#N)C#N)cc(C(C)(C)C)c1O [Tyrphostin 9] as the compound, how does the log2fc read?
**A.** −0.5358

**Q.** With O=C1NC(=O)[C@@H](c2cn3c4c(cccc24)CCC3)[C@@H]1c1c[nH]c2ccccc12 [Tivantinib (ARQ 197)] as the compound, how does the log2fc read?
**A.** 0.2709

**Q.** Which log2fc does the source give for Cc1cnc(Nc2ccc(OCCN3CCCC3)cc2)nc1Nc1cccc(S(=O)(=O)NC(C)(C)C)c1 [Fedratinib (SAR302503, TG101348)] here?
**A.** −0.003444

**Q.** 10058-F4 was tested. Which log2fc did it give?
**A.** 0.2472

**Q.** Which log2fc does the source give for Cc1cc(C(=O)NOCCO)c(Nc2ccc(I)cc2F)n(C)c1=O [AZD8330] here?
**A.** 0.5935

**Q.** With Cl.Cl.O=S(=O)(NCCNC/C=C/c1ccc(Br)cc1)c1cccc2cnccc12 [H 89 2HCl] as the compound, how does the log2fc read?
**A.** −0.01404

**Q.** For Nc1cccc(-c2cc3c(Oc4cccc(O)c4)ncnc3[nH]2)c1 [TWS119], which log2fc is on record?
**A.** 0.52

**Q.** With CC(=O)Nc1cccc(-n2c(=O)n(C3CC3)c(=O)c3c(Nc4ccc(I)cc4F)n(C)c(=O)c(C)c32)c1 [Trametinib (GSK1120212)] as the compound, how does the log2fc read?
**A.** 0.4803

**Q.** Which log2fc does the source give for Skepinone-L here?
**A.** −0.7997

**Q.** Which log2fc does the source give for CCn1c(N)c(C(=O)NC)c(=O)c2ccc(C#C[C@@](C)(O)COC)nc21 [SAR131675] here?
**A.** 0.374

**Q.** Which log2fc does the source give for O=c1[nH]c2ccc(Cl)cc2c(N[C@@H]2CN3CCC2CC3)c1-c1nc2ccccc2[nH]1 [CHIR-124] here?
**A.** 1.257

**Q.** With CNc1nc(Nc2cnn([C@H]3CCN(C4COC4)C[C@@H]3F)c2Cl)ncc1C(F)(F)F [GNE-9605] as the compound, how does the log2fc read?
**A.** 0.4092
